In brackets after ≈: the same amount, converted by molar mass. Read-outs that look alike come from different tables or passages of the source.
Key:
[1] = test system: C. tropicalis 1046709; assay: Checkerboard broth microdilution (CLSI); format: cell-based; settings: isolate 1046709; for MIC: Candida tropicalis, single agent
Experimental: (§1) Isolates were tested against varying concentrations of amphotericin B and C2′epiAmB (range, 0.06 to 4 mg/L) and combined with fluconazole (range, 0.12 to 128 mg/L) or ketoconazole (range 0.008 to 8 mg/L) or voriconazole (range, 0.004 to 4 mg/L) using a checkerboard grid design following the Clinical and Laboratory Standards Institute (CLSI) broth microdilution method (M23Ed5).

[2] = test system: A. flavus ATCC 204304; assay: Checkerboard broth microdilution (CLSI); format: cell-based; settings: isolate ATCC 204304; for MIC: Aspergillus flavus, ATCC204304, single agent
Experimental: as §1

[3] = test system: C. glabrata 1046695; assay: Checkerboard broth microdilution (CLSI); format: cell-based; settings: isolate 1046695; for MIC: Nakaseomyces glabratus, single agent
Experimental: as §1

[4] = test system: F. oxysporum SC 1087597; assay: Checkerboard broth microdilution (CLSI); format: cell-based; settings: isolate 1087597; for MIC: Fusarium oxysporum, single agent
Experimental: as §1

[5] = test system: F. solani SC 1047542; assay: Checkerboard broth microdilution (CLSI); format: cell-based; settings: isolate 1047542; for MIC: Fusarium solani, single agent
Experimental: as §1

[6] = test system: C. auris 1081160; assay: Checkerboard broth microdilution (CLSI); format: cell-based; settings: isolate 1081160; for MIC: Candidozyma auris, single agent
Experimental: as §1

[7] = test system: C. krusei 975691; assay: Checkerboard broth microdilution (CLSI); format: cell-based
Experimental: as §1

[8] = test system: C. albicans 967374; assay: Checkerboard broth microdilution (CLSI); format: cell-based; settings: isolate 967374; for MIC: single agent
Experimental: as §1

[9] = test system: C. parapsilosis 1048737; assay: Checkerboard broth microdilution (CLSI); format: cell-based; settings: isolate 1048737; for MIC: single agent
Experimental: as §1

[10] = test system: C. parapsilosis ATCC 22019; assay: Checkerboard broth microdilution (CLSI); format: cell-based; settings: isolate ATCC 22019
Experimental: as §1

[11] = test system: A. fumigatus ATCC MYA-3626; assay: Checkerboard broth microdilution (CLSI); format: cell-based; settings: isolate ATCC MYA-3626; for MIC: single agent
Experimental: as §1

[12] = test system: A. fumigatus 1077391; assay: Checkerboard broth microdilution (CLSI); format: cell-based; settings: isolate 1077391; for MIC: Aspergillus fumigatus, single agent
Experimental: as §1

[13] = test system: C. krusei ATCC 6258; assay: Checkerboard broth microdilution (CLSI); format: cell-based; settings: isolate ATCC 6258
Experimental: as §1

[14] = test system: A. flavus SC 1085986; assay: Checkerboard broth microdilution (CLSI); format: cell-based; settings: isolate 1085986; for MIC: Aspergillus flavus, single agent
Experimental: as §1

[15] = test system: yeast cells; assay: Antifungal activity after ergosterol pre-complexation of the sponge; format: cell-based; settings: sponge pre-complexed with ergosterol
Excerpt: Anderson, T. M. et al., Nat Chem Biol 2014, 10 (5), 400-6. […] Davis, S. A., et al., Nat Chem Biol 2015, 11 (7), 481-7. To test whether C2′epiAmB primarily kills cells via the same sterol sponge mechanism, the C2′epiAmB sponge was similarly pre-complexed with ergosterol. […] Thus, C2′epiAmB similarly kills yeast primarily via sterol binding, and, by extension, the new compounds targeted in this application are expected to have a similar barrier to fungal resistance that has been observed for the past 50+years with AmB.

[16] = UV-Vis and PCA based sterol sponge binding assay; settings: apparent KD, sterol sponge aggregates in vitro
Excerpt: However, an alternative method was developed for reproducible formation of homogenous AmB and C2′epiAmB sterol sponge aggregates in vitro. Using these preparations, a quantitative UV-Vis and Principle Component (PCA) based assay for determining the apparent Kis for the binding of AmB and C2′epiAmB to ergosterol and cholesterol (FIGS. 2A-2D) was developed.

[17] = test system: Candida albicans SN250; assay: MIC against Candida albicans SN250; format: cell-based
[18] = Pichia kudriavzevii, single agent, isolate 975691, read-out: MIC
[19] = Candida albicans, read-out: MIC
[20] = Lodderomyces parapsilosis, read-out: MIC
[21] = Aspergillus fumigatus, read-out: MIC
[22] = Pichia kudriavzevii, ATCC6258, single agent, read-out: MIC
[23] = Lodderomyces parapsilosis, ATCC22019, single agent, read-out: MIC

## C[C@@H]1[C@H](O)[C@@H](C)/C=C/C=C/C=C/C=C/C=C/C=C/C=C/[C@H](O[C@@H]2O[C@H](C)[C@@H](O)[C@H](N)[C@@H]2O)C[C@@H]2O[C@](O)(C[C@@H](O)C[C@@H](O)[C@H](O)CC[C@@H](O)C[C@@H](O)CC(=O)O[C@H]1C)C[C@H](O)[C@H]2C(=O)O [AmB, Amphotericin B]
[1]
  MIC: 0.5 µg/mL
[1]; with fluconazole
  MIC when added 1 log2 unit lower of azoles' MIC: 0.25 mg/L
[1]; with ketoconazole
  MIC when added 1 log2 unit lower of azoles' MIC: 0.5 mg/L
[1]; with voriconazole
  MIC when added 1 log2 unit lower of azoles' MIC: 0.5 mg/L
[2]
  MIC: 1 µg/mL
[2]; with ketoconazole
  MIC when added 1 log2 unit lower of azoles' MIC: 1 mg/L
[2]; with voriconazole
  MIC when added 1 log2 unit lower of azoles' MIC: 0.5 mg/L
[3]; read-out: MIC
  MIC: 0.5 µg/mL
[3]; with fluconazole
  MIC when added 1 log2 unit lower of azoles' MIC: 0.5 mg/L
[3]; with ketoconazole
  MIC when added 1 log2 unit lower of azoles' MIC: 0.06 mg/L
[3]; with voriconazole
  MIC when added 1 log2 unit lower of azoles' MIC: 0.5 mg/L
[4]
  MIC: 2 µg/mL
[4]; with ketoconazole
  MIC when added 1 log2 unit lower of azoles' MIC: 0.06 mg/L
[4]; with voriconazole
  MIC when added 1 log2 unit lower of azoles' MIC: 2 mg/L
[5]
  MIC: 2 µg/mL
[5]; with ketoconazole
  MIC when added 1 log2 unit lower of azoles' MIC: 0.06 mg/L
[5]; with voriconazole
  MIC when added 1 log2 unit lower of azoles' MIC: 2 mg/L
[6]; read-out: MIC
  MIC: 1 µg/mL
[6]; with fluconazole
  MIC when added 1 log2 unit lower of azoles' MIC: 0.06 mg/L
[6]; with ketoconazole
  MIC when added 1 log2 unit lower of azoles' MIC: 1 mg/L
[6]; with voriconazole
  MIC when added 1 log2 unit lower of azoles' MIC: 1 mg/L
[7]; [18]
  MIC: 1 µg/mL
[7]; single agent, isolate 975691
  MIC: 0.5 µg/mL
[7]; with fluconazole, isolate 975691
  MIC when added 1 log2 unit lower of azoles' MIC: 0.5 mg/L
[7]; with ketoconazole, isolate 975691
  MIC when added 1 log2 unit lower of azoles' MIC: 0.5 mg/L
[7]; with voriconazole, isolate 975691
  MIC when added 1 log2 unit lower of azoles' MIC: 0.5 mg/L
[8]; [19]
  MIC: 0.5 µg/mL
[8]
  MIC: 1 µg/mL
[8]; with fluconazole
  MIC when added 1 log2 unit lower of azoles' MIC: 0.5 mg/L
[8]; with ketoconazole
  MIC when added 1 log2 unit lower of azoles' MIC: 0.5 mg/L
[8]; with voriconazole
  MIC when added 1 log2 unit lower of azoles' MIC: 0.5 mg/L
[9]; [20]
  MIC: 0.5 µg/mL
[9]; with fluconazole
  MIC when added 1 log2 unit lower of azoles' MIC: 0.25 mg/L
[9]; with ketoconazole
  MIC when added 1 log2 unit lower of azoles' MIC: 0.25 mg/L
[9]; with voriconazole
  MIC when added 1 log2 unit lower of azoles' MIC: 0.25 mg/L
[10]; with fluconazole
  MIC when added 1 log2 unit lower of azoles' MIC: 0.25 mg/L
[10]; with ketoconazole
  MIC when added 1 log2 unit lower of azoles' MIC: 0.25 mg/L
[10]; with voriconazole
  MIC when added 1 log2 unit lower of azoles' MIC: 0.5 mg/L
[11]; [21]
  MIC: 1 µg/mL
[11]; with ketoconazole
  MIC when added 1 log2 unit lower of azoles' MIC: 2 mg/L
[11]; with voriconazole
  MIC when added 1 log2 unit lower of azoles' MIC: 1 mg/L
[12]
  MIC: 1 µg/mL
[12]; with ketoconazole
  MIC when added 1 log2 unit lower of azoles' MIC: 0.06 mg/L
[12]; with voriconazole
  MIC when added 1 log2 unit lower of azoles' MIC: 1 mg/L
[13]; [22]
  MIC: 0.5 µg/mL
[13]; single agent
  MIC: 1 µg/mL
[13]; with fluconazole
  MIC when added 1 log2 unit lower of azoles' MIC: 0.5 mg/L
[13]; with ketoconazole
  MIC when added 1 log2 unit lower of azoles' MIC: 0.5 mg/L
[13]; with voriconazole
  MIC when added 1 log2 unit lower of azoles' MIC: 0.5 mg/L
[14]
  MIC: 2 µg/mL
[14]; with ketoconazole
  MIC when added 1 log2 unit lower of azoles' MIC: 1 mg/L
[14]; with voriconazole
  MIC when added 1 log2 unit lower of azoles' MIC: 2 mg/L
[15]
  change of potency upon ergosterol pre-complexation: same reduction in potency
[16]; read-out: KD,chol
  Kd: 840 nM
[16]; read-out: KD,erg
  Kd: 120 nM
[17]
  MIC: 0.15 µM (≈ 0.139 µg/mL)

## OC(Cn1cncn1)(Cn1cncn1)c1ccc(F)cc1F [Fluconazole, fluconazole]
[1]
  MIC: 4 µg/mL
[3]
  MIC: 128 µg/mL
[6]
  MIC: > 128 µg/mL
[7]; Pichia kudriavzevii
  MIC: 128 µg/mL
[8]; [19]
  MIC: 16 µg/mL
[9]; [20]
  MIC: 0.5 µg/mL
[9]
  MIC: 1 µg/mL
[10]; [23]
  MIC: 1 µg/mL
[10]; single agent
  MIC: 2 µg/mL
[13]; [22]
  MIC: 32 µg/mL

## CC(=O)N1CCN(c2ccc(OCC3COC(Cn4ccnc4)(c4ccc(Cl)cc4Cl)O3)cc2)CC1 (centres unmarked) [Ketoconazole, ketoconazole]
[1]
  MIC: 0.12 µg/mL
[2]
  MIC: 2 µg/mL
[3]; read-out: MIC
  MIC: 4 µg/mL
[4]
  MIC: > 8 µg/mL
[5]
  MIC: > 8 µg/mL
[6]; read-out: MIC
  MIC: 0.5 µg/mL
[7]; [18]
  MIC: 1 µg/mL
[7]; single agent, isolate 975691
  MIC: 2 µg/mL
[8]; [19]
  MIC: 0.25 µg/mL
[9]; [20]
  MIC: 0.015 µg/mL
[9]
  MIC: 0.03 µg/mL
[10]; [23]
  MIC: 0.06 µg/mL
[11]; [21]
  MIC: 8 µg/mL
[11]
  MIC: >8 µg/mL
[12]
  MIC: > 8 µg/mL
[13]; [22]
  MIC: 0.25 µg/mL
[14]
  MIC: 4 µg/mL

## C[C@@H](c1ncncc1F)[C@](O)(Cn1cncn1)c1ccc(F)cc1F [Voriconazole, voriconazole]
[1]
  MIC: 0.12 µg/mL
[2]
  MIC: 1 µg/mL
[3]; read-out: MIC
  MIC: 4 µg/mL
[4]
  MIC: 4 µg/mL
[5]
  MIC: 4 µg/mL
[6]; read-out: MIC
  MIC: 1 µg/mL
[7]; [18]
  MIC: 4 µg/mL
[8]; [19]
  MIC: 0.25 µg/mL
[9]; [20]
  MIC: 0.008 µg/mL
[9]
  MIC: 0.015 µg/mL
[10]; [23]
  MIC: 0.03 µg/mL
[11]; [21]
  MIC: 0.5 µg/mL
[12]
  MIC: 2 µg/mL
[13]; [22]
  MIC: 0.25 µg/mL
[14]
  MIC: 1 µg/mL
